Source: US12721537B2, “System and method for measuring blood flow velocity on a microfluidic chip” (CASE WESTERN RESERVE UNIVERSITY, priority 2020, dated 2026)

Experiments:
whole blood = conditions: sodium citrate whole blood recalcified to 100 mM CaCl2, constant inlet pressure 20 mBar, PIV
Experimental: The whole blood sample for this example was drawn into a 3.2% sodium citrate containing vacutainer from a single healthy donor under an Institutional review board-approved protocol. The blood sample was stored at 4° C. upon collection and was processed within 24 h. […] Prior to the experiment, the whole blood sample was recalcified with the stock solution to obtain a final concentration of 100 mM CaCl2. […] The control experiment was performed by mixing the whole blood sample with PBS. Thereafter, the mixed blood sample was immediately injected into the microfluidic channel at a constant inlet pressure of 20 mBar by means of a Flow-EZ pressure control unit (Fluigent Inc., North Chelmsford, MA), as shown in FIG. 2. The constant supply pressure implies that the flow rate is reduced as the blood coagulates. The maximum initial shear rate was approximately 10 s^−1, and the shear rate reduced to zero as the flow slowed and eventually stopped due to microchannel blockage as coagulation occurred. The microfluidic channel was placed on an inverted microscope (Olympus IX83), and a video was recorded simultaneously under 4× magnification using a high-resolution camera (EXi Blue EXI-BLU-R-F-M-14-C) at 10 frames per second as soon as the flow was started. The field of view was centered on the microfluidic channel, and one pixel in the images corresponds to 1.58 μm. […]

citrate whole blood = assay: Thrombin-induced thrombus formation in a microchannel; type: cell-based; conditions: citrate whole blood reconstituted with 16.7 μM calcium chloride only
Source text: The influence of clotting disorders and therapies can be assessed in a case study using elevated levels of thrombin to promote coagulation. […] It is hypothesized that elevated levels of thrombin will produce distinctive, quantifiable effects on the evolution of the blood flow and the associated formation and growth of thrombi, and these experiments will allow us to assess the ability of our model to identify those effects. Additionally, the effect of heparin, a common anticoagulant therapy, on the blood flow will be evaluated by adding heparin into the blood samples at appropriate doses.

[Ca+2].[Cl-].[Cl-] [CaCl2, calcium chloride]
clotting time (dramatic drop in mean blood flow velocity) (whole blood): ~220 s | blood flow in microchannel (citrate whole blood): flows uniformly | thrombus formation in microchannel (citrate whole blood): No thrombus formation
